Measurements taken from publication PMC12143354, “Determining sex differences in aortic valve myofibroblast responses to drug combinations identified using a digital medicine platform” (Science Advances, 2025).
Read-outs that look alike come from different tables or passages of the source.

How the values were obtained:
[1] = test system: male VICs; assay: percent αSMA GMI reduction, male VICs on stiff hydrogels; type: cell-based, pig; settings: for EC1 / EC2 / Percent αSMA reduction, Average: male VICs; for EC1 / EC2: from dose response curves; for Percent αSMA reduction, Average: n = 3-4 gels
Method: (§1) Glass-bottom 96-well plates (Cellvis) were placed in an autoclave jar with a scintillation vial containing 100 μl of mercaptopropyltrimethoxysilane (MPTS; Sigma-Aldrich). The autoclave jar was then lightly sealed and placed inside an oven at 60°C for a minimum of 6 hours. The autoclave jar was opened in a chemical fume hood, and the vapor-deposited well plate was stored for up to 2 hours until ready for use. Eight-arm 20-kDa PEG-norbornene (PEG-Nb) was formed as outlined previously ([76]). A 7% (w/v) PEG-Nb hydrogel precursor solution was formed by combining phosphate-buffered saline (PBS), 20-kDa PEG-Nb at a 0.98:1 thiol-to-ene ratio, 5-kDa PEG-dithiol (Jenkem), CRGDS cell binding motif (Bachem), and lithium phenyl-2,4,6-trimethyl-benzoylphosphinate (Thermo Fisher Scientific). An EPMotion 5073l automated liquid handling system (Eppendorf) was used to pipet 7 μl of the hydrogel precursor solution into the center of each well of the vapor-deposited 96-well glass-bottom plate. The well plate with the hydrogel precursor solution was then stamped using a custom 96-well plate stamp, inverted, and cured under ultraviolet light at 10 mW/cm^2 for 3 min to induce gelation. The stamp was carefully removed by hand, and the newly formed gels were sterilized with a solution of 5% isopropyl alcohol (Thermo Fisher Scientific) in PBS for 20 min. Gels were then washed twice with PBS and stored in VIC media composed of Media199 (Life Technologies), 1% fetal bovine serum (FBS, Life Technologies), amphotericin B (1 μg/ml; Thermo Fisher Scientific), penicillin (50 U/ml; Sigma-Aldrich), and streptomycin (50 μg/ml; Sigma-Aldrich). Last, the hydrogels were placed in an incubator at 37°C with 5% carbon dioxide for up to 24 hours until experimental use.
(§2) Media changes were performed every 24 to 48 hours until cells reached ~80% confluency. […] The media solution was then aspirated, and VICs were resuspended with 1 ml of 1% FBS media. VICs were counted with an automated hemocytometer to calculate the volume of cell solution to add to each well to seed at 6400 cells per well (20,000 cells/cm^2) for TCPS and hydrogel experiments. For all experiments, VICs were seeded with 1% FBS media containing the specified drug doses and incubated at 37°C with 5% carbon dioxide with media changes every 48 to 72 hours if needed.
(§3) Drug stock solutions were discarded after two thaw cycles or after 10 months of storage. For all experiments, drug dilutions were calculated and added to VIC media to ensure that total DMSO levels remained below 1% for cytotoxicity and αSMA reduction curve fitting experiments and below 0.3% for drug combination experiments.
(§4) After culture on hydrogels or TCPS, the spent drug-containing media were removed, and VICs were immersed in a 4% paraformaldehyde solution in PBS for 20 min and then permeabilized for 1 hour with 0.1% Triton X-100 (Thermo Fisher Scientific) in PBS. Cells were then blocked with 5% bovine serum albumin in PBS for 1 hour at room temperature or over the weekend at 4°C. […] Last, VICs were washed once with PBS and then stored in PBS at 4°C until imaging. Gel samples were imaged in situ using a Nikon Eclipse Ti2-E and analyzed using an automated MATLAB code to quantify the αSMA gradient mean intensities and caspase-3 intensities normalized to cell mask for each cell. A minimum of 100 cells were used per gel with multiple gels used per condition.
(§5) Curve fitting for VIC percent αSMA reduction and cytotoxicity was performed using GraphPad Prism 10 (GraphPad Software Inc). For each inhibitor, the nonlinear regression tool in Prism was used to estimate the response against the agonist by fitting the top, bottom, EC50/CC50, and hillslope to each dataset. After 2 days of culture, the percent αSMA reduction was calculated using the average αSMA gradient mean intensities of the control relative to the drug condition using Eq. 1 %αSMA reduction=100×(Control−Drug Condition/Control) (1)

[2] = test system: female VICs; assay: percent αSMA GMI reduction by immunofluorescent staining, female VICs on TCPS; type: cell-based, pig; settings: for reduction in αSMA GMI, initial screen: female VICs on TCPS, dosing range 10^-7 to 10^3 μM; for Percent αSMA reduction, Average: female VICs, TCPS, single drug at L2 dose, n = 3 wells
Method: (§6) VICs were collected by aspirating off spent media, washing with PBS (Sigma-Aldrich) for 1 min, then incubating with 1× trypsin (Life Technologies) for 3 min. Trypsin was neutralized with an equal volume of 15% FBS growth media and centrifuged for 5 min at 0.2g. The media solution was then aspirated, and VICs were resuspended with 1 ml of 1% FBS media. VICs were counted with an automated hemocytometer to calculate the volume of cell solution to add to each well to seed at 6400 cells per well (20,000 cells/cm^2) for TCPS and hydrogel experiments. […] For each inhibitor, the nonlinear regression tool in Prism was used to estimate the response against the agonist by fitting the top, bottom, EC50/CC50, and hillslope to each dataset.

[3] = test system: male VICs; assay: percent αSMA GMI reduction by immunofluorescent staining, male VICs on TCPS; type: cell-based, pig; settings: for reduction in αSMA GMI, initial screen: male VICs on TCPS, dosing range 10^-7 to 10^3 μM; for Percent αSMA reduction, Average: male VICs, single drug at L2 dose, n = 3 wells
Method: as §6

[4] = test system: male VICs
Method: as §4
(§7) Percent cytotoxicity was determined by designating each cell as alive or dead using caspase-3 intensity normalized to cell mask intensity, which was thresholded using a positive and negative control for cell death [10 nM staurosporine (Cell Signaling Technologies) or 1% FBS media]. The bottom value for every curve fit was set to 0, and the top value was constrained to a maximum of 100 to indicate the maximum possible effect of the drug. […] Absolute EC and CC values for % αSMA reduction and percent cytotoxicity were quantified using the top, bottom, EC50/CC50, and hillslope values estimated from the curve fits generated in GraphPad Prism (GraphPad Software Inc).

[5] = test system: female VICs
Method: as §4, §7

[6] = test system: female VICs; assay: percent αSMA GMI reduction, female VICs on stiff hydrogels; type: cell-based, pig; settings: for EC1 / EC2: from dose response curves; for Percent αSMA reduction, Average: n = 3-4 gels
Method: as §1, §2, §3, §4, §5

[7] = test system: male VICs; assay: percent αSMA GMI reduction, male VICs on soft hydrogels; type: cell-based, pig; settings: single drug at L2 dose, n = 3 gels
Text: (§8) Last, we tested the ability of […]-designed combinations to prevent myofibroblast activation in VICs cultured on other substrates beyond stiff hydrogels. […] Six male-optimized combinations were effective in preventing male VIC myofibroblast activation (Fig. 7K). […] Single-drug monotherapies used in the top male and female drug combinations were confirmed to have a minimal effect on male and female VIC αSMA GMI on soft hydrogels (table S14). […] After aspirating off the spent media, VICs were resuspended in 5 ml of fresh 15% FBS media and seeded on T25 Falcon tissue culture-treated flasks (Thermo Fisher Scientific). […] VICs were collected by aspirating off spent media, washing with PBS (Sigma-Aldrich) for 1 min, then incubating with 1× trypsin (Life Technologies) for 3 min. Trypsin was neutralized with an equal volume of 15% FBS growth media and centrifuged for 5 min at 0.2g. The media solution was then aspirated, and VICs were resuspended with 1 ml of 1% FBS media. VICs were counted with an automated hemocytometer to calculate the volume of cell solution to add to each well to seed at 6400 cells per well (20,000 cells/cm^2) for TCPS and hydrogel experiments. […] For each inhibitor, the nonlinear regression tool in Prism was used to estimate the response against the agonist by fitting the top, bottom, EC50/CC50, and hillslope to each dataset.

[8] = test system: female VICs; assay: percent αSMA GMI reduction, female VICs on soft hydrogels; type: cell-based, pig; settings: single drug at L2 dose, n = 3 gels
Text: as §8

[9] = male VICs on stiff gels, n = 3 gels
[10] = male VICs, stiff hydrogels, from dose response curves
[11] = female VICs on stiff gels, n = 3 gels
[12] = female VICs, stiff hydrogels, from dose response curves

SMILES	EC1 [1] [µM]	EC2 [1] [µM]	Percent αSMA reduction, Average ([1]; single drug at level 1 dose) [%]	Percent αSMA reduction, Average ([1]; single drug at level 2 dose) [%]	reduction in αSMA GMI, initial screen [2] [%]	Percent αSMA reduction, Average [2] [%]	reduction in αSMA GMI, initial screen [3] [%]	Percent αSMA reduction, Average ([3]; TCPS) [%]	EC1 [6] [µM]	EC2 [6] [µM]	Percent αSMA reduction, Average ([6]; single drug at level 1 dose) [%]	Percent αSMA reduction, Average ([6]; single drug at level 2 dose) [%]	Percent αSMA reduction, Average [7] [%]	Percent αSMA reduction, Average [8] [%]	CC25 (percent cytotoxicity) [4, 9] [µM]	CC1 [4, 10] [µM]	CC2 [4, 10] [µM]	CC25 (percent cytotoxicity) [5, 11] [µM]	CC1 [5, 12] [µM]	CC2 [5, 12] [µM]	further results
CCCCc1nc(Cl)c(CO)n1Cc1ccc(-c2ccccc2-c2nn[nH]n2)cc1 [Losartan]	18.7	32.9	5.58	0.99	> 25	1.39	> 25	-1.33	154	219	7.00	2.37	0.81	2.73							sex difference in efficacy (male versus female EC20) ([1]; unpaired two-tailed t test, P < 0.05): reducing αSMA GMI more in male VICs relative to female VICs; sex difference in efficacy (male versus female EC20) ([3]; TCPS, unpaired two-tailed t test, P < 0.05): significantly more effective in male VICs relative to female VICs; CC1 ([4]; male, pig): 378 µM; CC2 ([4]; male, pig): 470 µM; CC25 (percent cytotoxicity) ([4]; male, pig): 1,123 uM; CC1 ([5]; female, pig): 11.1 µM; CC2 ([5]; female, pig): 27 µM; CC25 (percent cytotoxicity) ([5]; female, pig): 927 µM
Fc1ccc(Cl)cc1-c1nc(Nc2ccncc2)c2nccnc2n1 [SD-208]	0.0582	0.188	14.60	0.63	> 25	3.05	> 25	7.80	0.0061	0.0275	4.19	8.81	5.58	9.37	58.9	26.6	31.1	70.1	34.8	40.1	
O=C(COCC(=O)Nc1ccc(Cl)cc1C(=O)O)Nc1cccc(-c2ccoc2)c1 [TM5441]	4.96	9.3	-1.46	2.18	> 25	8.37	> 25	18.36	24.8	33.6	1.52	-7.64	13.16	17.16	51.3	18.9	21.9	191	19.7	31.1	
